Where two headings read alike, the source gives them in different places.
Key:
[1] = system: pUAS-1-driven EYFP expression in HEK293T cells transfected with GAL4- and VPR-fused PROTAC target protein / E3 ubiquitin ligase; experiment: PROTAC-CID inducible EYFP gene activation, flow cytometry; assay type: cell-based, human; details: for Bottom (best-fit value) / Span (best-fit value) / Top (best-fit value): Table 4 nonlinear regression of EYFP activation; for Bottom (best-fit value) / Span (best-fit value) / Top (best-fit value) / Hillslope (best-fit value) / logEC50 (best-fit value): FIG. 13A; for Hillslope (best-fit value) / logEC50 (best-fit value): Table 4 nonlinear regression; for increase in EYFP expression / EYFP induction compared to DMSO-treated controls: bromodomain-VPR fusion co-transfected with GAL4-VHL, FIG. 1C 5 μM dTRIM24, FIG. 1D 100 nM MZ1 or 1 μM AT1
Method: (§1) Fluorescence assay using flow cytometry analysis. Cells were treated with 0.05% Trpsin EDTA (Thermo Fisher Scientific no. 25300054) or TrypLE (Thermo Fisher Scientific no. 12605028) after transfection and centrifuged at 3000 g for 5 min. Supernatant was removed and the cell pellet was resuspended with 200 μL phosphate buffered saline (PBS) without calcium and magnesium (Thermo Fisher Scientific no. 10010023). Cells were transferred into 12×75 mm flow tubes (Global Scientific no. 110410). Cells were analyzed by MA900 flow cytometry (SONY). 405 nm laser (FL6 filter) was used for testing the BFP channel. 488 nm (FL1 filter) was used for testing the EYFP and GFP channel. Automated alignment using Automatic Setup Beads kit (SONY no. LE-B3001) is performed before running samples. In FIGS. 3A, 3B, and 17, experiments were performed under 2% FSC, 17% BSC, 24% FL1. In FIG. 18, experiments were performed under 2% FSC, 17% BSC, 27% FL1. All the other experiments were performed under 2% FSC, 17% BSC, 24% FL1 and 27% FL6. Flow cytometry data was processed and analyzed by FlowJo 10. Events were first gated with forward scatter-Area (FSC-A) and side scatter-Area (SSC-A) to select viable cells and remove the debris and dead cells. Cells were further gated with FSC-A and FSC-Height (FSC-H) for selecting single cells. The mean intensity of the reporter fluorescent protein (BFP and EYFP) in viable and single cell populations were calculated by FlowJo 10 as the mean of FL6-A and FL1-A. When calculating the fold change of relative fluorescence units (RFU), the relative fluorescence units of EYFP was calculated by dividing the mean of fluorescence intensity of EYFP with the mean of BFP fluorescence intensity for normalization as the following formula: […]
(§2) Next, the mean of the normalized relative fluorescence units of induced group were divided by the value of control group for calculating the fold change as the following formula: […]
(§3) Transfection and microscopy. HEK293T cells (American Type Culture Collection, no. CRL-3216) were cultured with high-glucose Dulbecco's modified Eagle's medium (DMEM) (Thermo Fisher Scientific no. 10569044) with 10% fetal bovine serum (FBS) (Thermo Fisher Scientific no. 10437028) and 1×penicillin-streptomycin (Thermo Fisher Scientific no. 15140122) at 37° C. with 5% CO2. Except for the data in FIGS. 3C, 3E, and 3H, cells were plated into 96 well plate (Corning no. 3598) and transfected by Polyethyleneimine Max (PEI Max) (Polysciences no. 24765-1). 1.5 μL PEI Max (1 mg/mL, pH=7.1) and 100 μl DMEM were mixed with plasmids to be slowly dropped into the cell medium after 30 mins of incubation. Medium was changed 12 hours post-transfection. The inductive small molecules, including Rapamycin (STEM CELL technologies no. 73362), dTAG-13 (TOCRIS no. 6605/5), dTAG^V-1 (TOCRIS no. 6744-5), dBRD9 (TOCRIS no. 6606/5), dTRIM24 (TOCRIS no. 6607/5), MZ1 (TOCRIS no. 6154/5), AT1 (TOCRIS no. 6356/5), TL13-12 (TOCRIS no. 6744/5), TL13-112 (TOCRIS no. 6745/5), dTAG-7 (TOCRIS no. 69125), ZXH3-26 (TOCRIS no. 6713/5) and ABA (GoldBio no. A-050-100), dissolved in Dimethyl sulfoxide (DMSO) (Sigma, no. D8418) were added. For the microscopy observation, the images were taken by Microscopy EVOS (Life Technologies) and processed by ImageJ (Schneider et al., 2012). If not otherwise noted, 60 ng of each plasmid were used for each sample.
(§4) Step-by-step fluorescence protein activation assay protocol. Reagents: • 1. PEI Max (Polysciences no. 24765-1) • 2. DMEM, high glucose, GlutaMAX™ Supplement, pyruvate (Thermo Fisher Scientific no. 10569044) • 3. Penicillin-Streptomycin (10,000 U/mL) (Thermo Fisher Scientific no. 15140122) • 4. Fetal Bovine Serum 500ML (FBS) (Thermo Fisher Scientific no. 10437028) • 5. TrypLE™ Express Enzyme (1×), phenol red (Thermo Fisher Scientific no. 12605068) • 6. PBS pH=7.4 (Thermo Fisher Scientific no. 10010023) • 7. Sony sorting chip […] for MA900 (SONY no. LE-C3210) • 8. Automatic Setup Beads kit (SONY no. LE-B3001) • 9. […]

[2] = as above; assay type: cell-based, human; details: Homo sapiens, HEK-293T, FIG. 13A
Method: as §1, §2, §3, §4

[3] = system: pUAS-2-Fluc expression in HEK293T cells with cognate or non-cognate GAL4/VPR protein pairs; experiment: Orthogonality analysis, Firefly luciferase (Fluc) luminescence; assay type: cell-based, human; details: seven different protein pairs, 2 days, FIGS. 2A and 14
Method: Luciferase luminescence intensity measurement. Before transfection, HEK293T cells were seeded in clear bottom 96 well assay plates (Corning no. 3610) with 100 μL DMEM with 10% FBS and 1× penicillin-streptomycin at 37° C. with 5% CO2. When cells reached 50% confluency, 1.5 μL PEI Max (1 mg/mL, pH=7.1) and 100 μL DMEM were mixed with 60 ng of each plasmid (GAL4 and VPR fused target protein or E3 ubiquitin ligase, pUAS-2-Fluc) for 30 min at room temperature. Mixture was transferred into cells gently. 12 h after transfection, medium was changed, and the inductive small molecules were supplied. 2-days post induction, 120 μL of medium was aspirated from each well containing 200 μL of medium, leaving 80 μL of medium per well, then treated with 40 μL of lysis buffer (500 mM DTT (Sigma no. D0632), 10 mM coenzyme A (RPI no. C95275), 100 mM ATP (Thermo Fisher Scientific no. R1441), 80 mg/mL D-luciferin (GoldBio no. LUCNA-100), Triton lysis buffer (0.1082 M Tris-HCl, 0.0419 M Tris-Base, 75 mM NaCl, 3 mM MgCl2)). Plate was shaken with 20 seconds in “Orbital” mode with frequency of 432 rpm and Amplitude of 1 mm to lysis the cells. Recording the luminescence by plate reader Infinite M200 (TECAN) with 1000 ms integration time using Megellan v1.7 (TECAN). Mean of luciferase luminescence relative light units (RLU) was calculated by the average of three biological replications. Normalized RLU were calculated by dividing RLU of the tested group with mean of RLU of DMSO treated control group for normalization: […]

GAL4-FKBP12^F36V (human) = experiment: cell-based or functional assay
[4] = Table 4 nonlinear regression, Prism 9 [Agonist] vs. response variable slope (four parameters), no unit in table (the source gives nM), read-out: EC50 (best-fit value)
[5] = dose-response, read-out: EC50 for gene activation

Molecule: CC1=CC(=O)CC(C)(C)[C@@]1(O)/C=C/C(C)=C\C(=O)O [ABA, abscisic acid]
- Bottom (best-fit value) [1]: 1.587
- Span (best-fit value) [1]: 77.84
- Top (best-fit value) [1]: 79.43
- Hillslope (best-fit value) [1]: 2.083
- logEC50 (best-fit value) [1]: 2.882
- EC50 [2, 4]: 763 nM
- EC50 [2, 5]: 763 nM

Molecule: CC(=O)N[C@H](C(=O)N1C[C@H](O)C[C@H]1C(=O)NCc1ccc(-c2scnc2C)cc1)C(C)(C)SCCCCCCNC(=O)C[C@@H]1N=C(c2ccc(Cl)cc2)c2c(sc(C)c2C)-n2c(C)nnc21 [AT1]
- orthogonality: Fluc activation with cognate vs non-cognate protein partners [3]: interact with the same protein pairs

Molecule: Nc1cccc2c1CN(C1CCC(=O)NC1=O)C2=O (centres unmarked) [Lenalidomide]
- inducible gene activation efficiency compared with dTAG-13 PROTAC-CID ([1]; CRBN-VPR with GAL4 fused IKZF1 or IKZF3, Lenalidomide 1 μM vs 100 nM dTAG-13, 2 days, FIGS. 11D-11E): significantly less efficient than the dTAG-13 PROTAC-CID system

Molecule: COc1cc(N2CCN(CCOCCOCCNC(=O)CNc3cccc4c3C(=O)N(C3CCC(=O)NC3=O)C4=O)CC2)ccc1Nc1ncc(Cl)c(Nc2ccccc2S(=O)(=O)C(C)C)n1 (centres unmarked) [TL13-12]
- orthogonality: Fluc activation with cognate vs non-cognate protein partners [3]: interact with the same protein pairs

Molecule: Cc1cc(Nc2ncc(Cl)c(Nc3ccccc3S(=O)(=O)C(C)C)n2)c(OC(C)C)cc1C1CCN(CCOCCOCCNC(=O)CNc2cccc3c2C(=O)N(C2CCC(=O)NC2=O)C3=O)CC1 (centres unmarked) [TL13-112]
- orthogonality: Fluc activation with cognate vs non-cognate protein partners [3]: interact with the same protein pairs

Molecule: CCCOc1cccc(Oc2cc3c(cc2NS(=O)(=O)c2cccc(C(=O)NCCOCCOCCOCC(=O)N[C@H](C(=O)N4C[C@H](O)C[C@H]4C(=O)NCc4ccc(-c5scnc5C)cc4)C(C)(C)C)c2)n(C)c(=O)n3C)c1 [dTRIM24]
- grades of EYFP intensity ([1]; HEK293T transfected with GAL4-VHL, TRIM24^BD-VPR, BRD4^BD2-VPR and reporter plasmid, FIG. 2E: dTRIM24, MZ1 100 nM): 37 fold
- Bottom (best-fit value) [1]: 0.5037
- Span (best-fit value) [1]: 1430
- Top (best-fit value) [1]: 1431
- Hillslope (best-fit value) [1]: 1.463
- logEC50 (best-fit value) [1]: 3.803
- fold change gene activation activity ([1]; at 5 μM): more than 500 fold
- fold change in EYFP expression ([1]; below 1 μM): less than 100 fold
- EC50 [2, 4]: 6350 nM
- EC50 [2, 5]: 6300 nM

Molecule: CRBN-VPR
- EC50 of the inducer dTAG-13 for EYFP gene activation (dose-response, FIG. 13A) (GAL4-FKBP12^F36V (human)): 53 nM
- fold increase in EYFP expression with dTAG-13 (GAL4-FKBP12^F36V (human)): > 100 fold

Molecule: VHL-VPR (from UniProt P40337 1-213)
- EC50 of the inducer dTAG^V-1 for EYFP gene activation (dose-response, FIG. 13A) (GAL4-FKBP12^F36V (human)): 228 nM

B1: BRD4^BD2-VPR: Fusion protein of VPR with bromodomain BD2 of BRD4 (SEQ ID NO: 7) (protein)
chain: MPKKKRKVGGGSPGGGGSSKVSEQLKCCSGILKEMFAKKHAAYAWPFYKPVDVEALGLHDYCDIIKHPMDMSTIKSKLEAREYRDAQEFGADVRLMFSNCYKYNPPDHEVVAMARKLQDVFEMRFAKMPDGGGSRADPKKKRKVEASGSGRADALDDFDLDMLGSDALDDFDLDMLGSDALDDFDLDMLGSDALDDFDLDMLINSRSQYLPDTDDRHRIEEKRKRTYETFKSIMKKSPFSGPTDPRPPPRRIAVPSRSSASVPKPAPQPYPFTSSLSTINYDEFPTMVFPSGQISQASALAPAPPQVLPQAPAPAPAPAMVSALAQAPAPVPVLAPGPPQAVAPPAPKPTQAGEGTLSEALLQLQFDDEDLGALLGNSTDPAVFTDLASVDNSEFQQLLNQGIPVAPHTTEPMLMEYPEAITRLVTGAQRPPDPAPAPLGAPGLPNGLLSGDEDFSSIADMDFSALLGSGSGSRDSREGMFLPKPEAGSAISDVFEGREVCQPKRIRPFHPPGSPWANRPLPASLAPTPTGPVHEPVGSLTPAPVPQPLDPAPAVTPEASHLLEDPDEETSQAVKALREMADTVIPQKEEAAICGQMDLSHPPPRGHLDELTTTLESMTEDLNLDSPLTPELNEILDTFLNDECLLHAMHISTGLSIFDTSLFTSGGGSKRPAATKKAGQAKKKKSR
- increase in EYFP expression / EYFP induction compared to DMSO-treated controls [1]: 441 fold

B2: TRIM24BD-VPR: Fusion protein of VPR with the bromodomain of TRIM24 (SEQ ID NO: 4) (protein)
chain: MPKKKRKVGGGSPGGGGSPNEDWCAVCQNGGELLCCEKCPKVFHLSCHVPTLTNFPSGEWICTFCRDLSKPEVEYDCDAPSHNSEKKKTEGLVKLTPIDKRKCERLLLFLYCHEMSLAFQDPVPLTVPDYYKIIKNPMDLSTIKKRLQEDYSMYSKPEDFVADFRLIFQNCAEFNEPDSEVANAGIKLENYFEELLKNLYPGGGSRADPKKKRKVEASGSGRADALDDFDLDMLGSDALDDFDLDMLGSDALDDFDLDMLGSDALDDFDLDMLINSRSQYLPDTDDRHRIEEKRKRTYETFKSIMKKSPFSGPTDPRPPPRRIAVPSRSSASVPKPAPQPYPFTSSLSTINYDEFPTMVFPSGQISQASALAPAPPQVLPQAPAPAPAPAMVSALAQAPAPVPVLAPGPPQAVAPPAPKPTQAGEGTLSEALLQLQFDDEDLGALLGNSTDPAVFTDLASVDNSEFQQLLNQGIPVAPHTTEPMLMEYPEAITRLVTGAQRPPDPAPAPLGAPGLPNGLLSGDEDFSSIADMDFSALLGSGSGSRDSREGMFLPKPEAGSAISDVFEGREVCQPKRIRPFHPPGSPWANRPLPASLAPTPTGPVHEPVGSLTPAPVPQPLDPAPAVTPEASHLLEDPDEETSQAVKALREMADTVIPQKEEAAICGQMDLSHPPPRGHLDELTTTLESMTEDLNLDSPLTPELNEILDTFLNDECLLHAMHISTGLSIFDTSLFTSGGGSKRPAATKKAGQAKKKKSR
- increase in EYFP expression / EYFP induction compared to DMSO-treated controls [1]: 592 fold

From patent publication US20250382631A1, “PROTAC-CID SYSTEMS FOR USE IN MULTIPLEX GENE REGULATION” (William Marsh Rice University, priority 2022, published 2025)
